From ChEMBL document CHEMBL5150052, “Riboflavin-Promoted In Situ Photoactivation of Dihydroalkaloid Prodrugs for Cancer Therapy” (J Med Chem, 2022)
The source made the active and inactive calls. No cut-off for these calls is given here.

What was measured:
[1] = system: A-375; assay: Potentiation of DHCHE-mediated apoptosis activity against human A-375 cells assessed as increase in Caspase 3 gene expression under blue light 450 nm/20 mW/cm^-2 irradiation at 10 uM after 10 min by quantitative reverse transcription PCR analysis; assay type: functional, cell-based
[2] = Toxicity in human A-375 cells xenografted in mouse model assessed as changes in ALT in presence of DHCHE under blue light 450 nm/20 mW/cm^-2 irradiation at 1 mg/kg administered intratumoral injection for 14 days by […]; assay type: organism-based; settings: in vivo, other, 336 h, route it(Intratumoral), time 14 day
[3] = Toxicity in human A-375 cells xenografted in mouse model assessed as changes in AST in presence of DHCHE under blue light 450 nm/20 mW/cm^-2 irradiation at 1 mg/kg administered intratumoral injection for 14 days by […]; assay type: organism-based; settings: in vivo, other, 336 h, route it(Intratumoral), time 14 day
[4] = Toxicity in human A-375 cells xenografted in mouse model assessed as inflammation lesions in intestine in presence of DHCHE under blue light 450 nm/20 mW/cm^-2 irradiation at 1 mg/kg administered intratumoral injection for 14 days by H and E staining based assay; assay type: organism-based; settings: in vivo, other, 336 h, route it(Intratumoral), time 14 day
[5] = system: A-375; assay: Potentiation of DHSAN-mediated anticancer activity against human A-375 cells assessed as cell killing under blue light 450 nm/20 mW/cm^-2 irradiation at 10 uM after 10 min by MTT assay; assay type: functional, cell-based
[6] = Photooxidative transformation of DHCHE assessed as decrease in DHCHE peak under blue light 450 nm/20 mW/cm^-2 irradiation at 0.1 mg/ml from 0 to 20 mins by HRMS spectra analysis; assay type: functional; settings: time 0-20 min
[7] = Toxicity in human A-375 cells xenografted in mouse model assessed as inflammation lesions in kidney in presence of DHCHE under blue light 450 nm/20 mW/cm^-2 irradiation at 1 mg/kg administered intratumoral injection for 14 days by H and E staining based assay; assay type: organism-based; settings: in vivo, other, 336 h, route it(Intratumoral), time 14 day
[8] = Photooxidative transformation of DHCHE assessed as decrease in DHCHE peak under blue light 450 nm/20 mW/cm^-2 irradiation at 0.1 mg/ml from 0 to 20 mins by NMR spectra analysis; assay type: functional; settings: time 0-20 min
[9] = system: A-375; assay: Potentiation of DHCHE-mediated apoptosis activity against human A-375 cells assessed as decrease in Bcl2 gene expression under blue light 450 nm/20 mW/cm^-2 irradiation at 10 uM after 10 min by quantitative reverse transcription PCR analysis; assay type: functional, cell-based
[10] = Toxicity in human A-375 cells xenografted in mouse model assessed as changes in BUN in presence of DHCHE under blue light 450 nm/20 mW/cm^-2 irradiation at 1 mg/kg administered intratumoral injection for 14 days by […]; assay type: organism-based; settings: in vivo, other, 336 h, route it(Intratumoral), time 14 day
[11] = Photooxidative transformation of DHSAN assessed as increase in generation of SAN under blue light 450 nm/20 mW/cm^-2 irradiation at 10 uM by UV-vis absorption spectra analysis; assay type: functional
[12] = system: A-375; assay: In vivo antitumor activity against human A-375 cells xenografted in mouse model assessed as potentiation of DHCHE-mediated anticancer activity by measuring increase in caspase 3 expression at 1 mg/kg administered intratumoral injection for 14 days by […]; assay type: functional, organism-based; settings: route it(Intratumoral), time 14.0 day
[13] = system: A-375; assay: Potentiation of DHSAN-mediated apoptosis activity against human A-375 cells assessed as cell killing under blue light 450 nm/20 mW/cm^-2 irradiation at 10 uM after 30 min by CLSM imaging method; assay type: functional, cell-based
[14] = Toxicity in human A-375 cells xenografted in mouse model assessed as inflammation lesions in lung in presence of DHCHE under blue light 450 nm/20 mW/cm^-2 irradiation at 1 mg/kg administered intratumoral injection for 14 days by H and E staining based assay; assay type: organism-based; settings: in vivo, other, 336 h, route it(Intratumoral), time 14 day
[15] = system: A-375; assay: In vivo antitumor activity against human A-375 cells xenografted in mouse model assessed as potentiation of DHCHE-mediated anticancer activity by measuring decrease in Ki-67 expression at 1 mg/kg administered intratumoral injection for 14 days by […]; assay type: functional, organism-based; settings: route it(Intratumoral), time 14.0 day
[16] = system: A-375; assay: In vivo antitumor activity against human A-375 cells xenografted in mouse model assessed as potentiation of DHCHE-mediated tumor growth inhibition under blue light 450 nm/20 mW/cm^-2 irradiation at 1 mg/kg administered intratumoral injection for 14 days; assay type: functional, organism-based; settings: route it(Intratumoral), time 14.0 day
[17] = Toxicity in human A-375 cells xenografted in mouse model assessed as changes in total protein in presence of DHCHE under blue light 450 nm/20 mW/cm^-2 irradiation at 1 mg/kg administered intratumoral injection for 14 days by […]; assay type: organism-based; settings: in vivo, other, 336 h, route it(Intratumoral), time 14 day
[18] = Photooxidative transformation of DHCHE assessed as increase in generation of CHE under blue light 450 nm/20 mW/cm^-2 irradiation at 10 uM by UV-vis absorption spectra analysis; assay type: functional
[19] = system: A-375; assay: Potentiation of DHCHE-mediated apoptosis activity against human A-375 cells assessed as increase in Bax gene expression under blue light 450 nm/20 mW/cm^-2 irradiation at 10 uM after 10 min by quantitative reverse transcription PCR analysis; assay type: functional, cell-based
[20] = Toxicity in human A-375 cells xenografted in mouse model assessed as inflammation lesions in spleen in presence of DHCHE under blue light 450 nm/20 mW/cm^-2 irradiation at 1 mg/kg administered intratumoral injection for 14 days by H and E staining based assay; assay type: organism-based; settings: in vivo, other, 336 h, route it(Intratumoral), time 14 day
[21] = Toxicity in human A-375 cells xenografted in mouse model assessed as inflammation lesions in heart in presence of DHCHE under blue light 450 nm/20 mW/cm^-2 irradiation at 1 mg/kg administered intratumoral injection for 14 days by H and E staining based assay; assay type: organism-based; settings: in vivo, other, 336 h, route it(Intratumoral), time 14 day
[22] = Photooxidative transformation of DHNIT assessed as increase in generation of NIT under blue light 450 nm/20 mW/cm^-2 irradiation at 10 uM by UV-vis absorption spectra analysis; assay type: functional
[23] = system: A-375; assay: Potentiation of DHCHE-mediated apoptosis activity against human A-375 cells assessed as increase in P53 gene expression under blue light 450 nm/20 mW/cm^-2 irradiation at 10 uM after 10 min by quantitative reverse transcription PCR analysis; assay type: functional, cell-based
[24] = Photooxidative transformation of DHCHE assessed as decrease in DHCHE peak under blue light 450 nm/20 mW/cm^-2 irradiation at 0.1 mg/ml by HPLC analysis (reference value: 82.7%); assay type: functional; set-up: scale not given: the % may be the effect or the level left
[25] = Toxicity in human A-375 cells xenografted in mouse model assessed as inflammation lesions in liver in presence of DHCHE under blue light 450 nm/20 mW/cm^-2 irradiation at 1 mg/kg administered intratumoral injection for 14 days by H and E staining based assay; assay type: organism-based; settings: in vivo, other, 336 h, route it(Intratumoral), time 14 day
[26] = Toxicity in human A-375 cells xenografted in mouse model assessed as change in body weight in presence of DHCHE under blue light 450 nm/20 mW/cm^-2 irradiation at 1 mg/kg administered intratumoral injection for 14 days; assay type: organism-based; settings: in vivo, other, 336 h, route it(Intratumoral), time 14 day
[27] = system: A-375; assay: Photooxidative transformation of DHCHE in human A-375 cells assessed as increase in red fluorescence in nucleus under blue light 450 nm/20 mW/cm^-2 irradiation at 10 uM after 1 min by confocal laser scanning microscopy; assay type: ADME, cell-based; settings: a-375, 1 min
[28] = system: A-375; assay: Potentiation of DHCHE-mediated anticancer activity against human A-375 cells assessed as cell killing under blue light 450 nm/20 mW/cm^-2 irradiation at 10 uM after 10 min by MTT assay; assay type: functional, cell-based
[29] = system: A-375; assay: Potentiation of DHCHE-mediated apoptosis activity against human A-375 cells assessed as cell killing under blue light 450 nm/20 mW/cm^-2 irradiation at 10 uM after 30 min by CLSM imaging method; assay type: functional; settings: 0.5 h
[30] = system: A-375; assay: Potentiation of DHNIT-mediated anticancer activity against human A-375 cells assessed as cell killing under blue light 450 nm/20 mW/cm^-2 irradiation at 10 uM after 10 min by MTT assay; assay type: functional, cell-based
[31] = system: A-375; assay: In vivo antitumor activity against human A-375 cells xenografted in mouse model assessed as potentiation of DHCHE-mediated anticancer activity by measuring increase in vacuole and condensed nuclei at 1 mg/kg administered intratumoral injection for 14 days by […]; assay type: functional, organism-based; settings: route it(Intratumoral), time 14.0 day
[32] = system: A-375; assay: Potentiation of DHNIT-mediated apoptosis activity against human A-375 cells assessed as cell killing under blue light 450 nm/20 mW/cm^-2 irradiation at 10 uM after 30 min by CLSM imaging method; assay type: functional, cell-based

In the case of `Cc1cc2nc3c(=O)[nH]c(=O)nc-3n(C[C@H](O)[C@H](O)[C@H](O)CO)c2cc1C` [RIBOFLAVIN], the Activity [1] is reported as “Active”, the Activity [2] is reported as “Non-Toxic” and the Activity [3] is reported as “Non-Toxic”. For the same compound, the Activity [4] was “Non-Toxic”, the Activity [5] was “Active” and the Drug metabolism [6] was “Metabolite detected”. The Activity [7] was “Non-Toxic”, the Drug metabolism [8] was “Metabolite detected” and the Activity [9] was “Active”. The Activity [10] was “Non-Toxic”, the Drug metabolism [11] was “Metabolite detected” and the Activity [12] was “Active”. For the same compound, the Activity [13] was “Active”, the Activity [14] was “Non-Toxic” and the Activity [15] was “Active”. For the same compound, the Activity [16] was “Active”, the Activity [17] was “Non-Toxic” and the Drug metabolism [18] was “Metabolite detected”. The Activity [19] was “Active”, the Activity [20] was “Non-Toxic” and the Activity [21] was “Non-Toxic”. The Drug metabolism [22] was “Metabolite detected”, the Activity [23] was “Active” and the Activity [24] was 11.2%. For the same compound, the Activity [25] was “Non-Toxic”, the Activity [26] was “Non-Toxic” and the Drug metabolism [27] was “Metabolite_Detected”. The Activity [28] was “Active”, the Activity [29] was 61.7% and the Activity [30] was “Active”. For the same compound, the Activity [31] was “Active” and the Activity [32] was “Active”.
